Assay results: PMC10201049, “Rhein-attenuates LPS-induced acute lung injury via targeting NFATc1/Trem2 axis” (Inflammation Research, 2023)

Target: T1, NFATc1 (Mus musculus, UniProt O88942)
T1 construct: endogenous protein in RAW264.7 cell lysate
T1 sequence (O88942 1-717): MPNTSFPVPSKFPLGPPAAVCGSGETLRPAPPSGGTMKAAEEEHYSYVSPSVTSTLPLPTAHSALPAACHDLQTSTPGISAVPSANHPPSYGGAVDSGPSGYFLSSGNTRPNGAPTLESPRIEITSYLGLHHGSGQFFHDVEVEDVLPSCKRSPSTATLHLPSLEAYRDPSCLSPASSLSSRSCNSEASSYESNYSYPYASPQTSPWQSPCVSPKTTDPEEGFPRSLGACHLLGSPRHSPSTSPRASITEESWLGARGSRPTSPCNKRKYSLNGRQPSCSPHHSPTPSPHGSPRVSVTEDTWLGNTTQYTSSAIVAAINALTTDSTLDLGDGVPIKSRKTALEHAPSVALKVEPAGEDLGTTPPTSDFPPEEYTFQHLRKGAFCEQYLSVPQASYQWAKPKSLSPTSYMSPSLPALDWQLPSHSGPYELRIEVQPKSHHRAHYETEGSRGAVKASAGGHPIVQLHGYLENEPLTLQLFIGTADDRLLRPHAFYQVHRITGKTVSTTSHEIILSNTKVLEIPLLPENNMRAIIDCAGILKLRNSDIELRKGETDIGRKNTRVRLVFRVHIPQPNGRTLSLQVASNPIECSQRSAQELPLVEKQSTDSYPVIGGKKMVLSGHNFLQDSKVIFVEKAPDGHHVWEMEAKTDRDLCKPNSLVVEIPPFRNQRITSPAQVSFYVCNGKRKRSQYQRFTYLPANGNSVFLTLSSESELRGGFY
Test: biotin pull-down on streptavidin beads, western blot
Format: biochemical
Conditions: labelled compound (biotin conjugate of rhein, linker only drawn); biotin alone as control; RAW264.7 lysate, 4 °C bead loading

Structure (SMILES): O=C1N[C@H]2[C@H](CS[C@H]2CCCCC(=O)Oc2cccc3c2C(=O)c2c(O)cc(C(=O)O)cc2C3=O)N1 [Bio-Rhein, Biotinylated-Rhein]
- biotin pull-down on streptavidin beads, western blot: The results of western immunoblotting indicated the direct interaction between rhein and NFATc1
